Assay results reported in patent US6921821B2, “Antagonists of melanin concentrating hormone receptor” (Abbott Laboratories, priority 2002, dated 2005).

What follows are compounds tested against T1, murine MCHR (Mus musculus, UniProt Q8JZL2) (assay: Assay for release of intracellular calcium (FLIPR, Fluo-4), inhibition of MCH-induced Ca++ flux). Conditions: test compound at a dose of 10 μM, HEK293 cells expressing the murine MCHR, read-out: inhibition of MCH (MCH induced Ca++ flux / fluorescence).
T1 construct: expressed in transfected cells; host or cells: HEK293
Type: cell-based
Description: Assay for Release of Intracellular Calcium
Activation of the melanin concentrating hormone receptor (MCHR) by MCH induces the release of Ca^++ from intracellular stores. This intracellular calcium release is measured using a fluorometric imaging plate reader (FLIPR™, Molecular Devices Corp.) in conjunction with the Ca^++-sensitive dye Fluo-4. Release of Ca^++ from intracellular stores causes an increase in fluorescence of the dye that is proportional to Ca^++ concentration. Briefly, the assays are performed as follows. HEK293 cells expressing the murine MCHR are plated overnight at 50,000 cells/well in 96-well plates. The following day, culture medium is removed and replaced with 100 μl/well of D-PBS (+glucose and sodium pyruvate) containing 2.5 μM Fluo-4AM (Molecular Probes), 0.01% Pluronic F-127 and 2.5 mM probenecid. Cells are loaded with the Fluo-4 dye for at least one hour at room temp. After loading, the cells are washed gently to remove extracellular dye and 100 μl of D-PBS (+glucose and sodium pyruvate) is added to each well. Test compounds are prepared at 40 μM in 4% DMSO. The cell plate is placed in the FLIPR™ and 50 μl/well of test compound is delivered. The calcium signal is followed for 3 minutes to assay for potential agonist activity by the test compounds. Then 50 μl/well of 12 nM mouse MCH (in D-PBS containing 0.1% BSA) is added and the ligand-induced calcium signal is followed for an additional 3 minutes. Antagonist activity as determined by the test compounds ability to inhibit MCH induced Ca^++ flux is calculated as % inhibition as described by the following formula: % inhibition=[1−((fTC−fB)÷(fMCH−fB))]×100, where fTC=MCH-induced fluorescence in the presence of test compound; fMCH=MCH-induced fluorescence in the absence of test compound; and fB=Baseline fluorescence.
MCH (3 nM) usually elicits a response of 30,000-40,000 relative fluorescence units (RFU) with a baseline of about 1000 RFU. Fluo-4 fluorescence is measured at 488 nm, with an exposure of 0.40 sec. and F-stop=2.0 and the laser set at 0.40-0.60 W constant light output.

T1 sequence (Q8JZL2 whole entry): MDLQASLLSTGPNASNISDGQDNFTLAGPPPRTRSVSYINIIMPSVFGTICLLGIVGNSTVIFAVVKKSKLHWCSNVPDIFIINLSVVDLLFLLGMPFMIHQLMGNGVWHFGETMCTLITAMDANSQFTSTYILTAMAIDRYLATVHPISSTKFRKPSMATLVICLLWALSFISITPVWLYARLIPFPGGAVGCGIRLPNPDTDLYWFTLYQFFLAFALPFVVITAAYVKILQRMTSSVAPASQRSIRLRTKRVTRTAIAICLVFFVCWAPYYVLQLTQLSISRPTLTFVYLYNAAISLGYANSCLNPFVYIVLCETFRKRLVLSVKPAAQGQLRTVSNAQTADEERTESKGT

Inhibition at 10 µM, ≥ 50%:
CN(C)C(=O)c1c(NC2CCN(Cc3ccc4ccccc4c3)CC2)c2cc(Cl)ccc2n(C)c1=O [Compound V-24, 6-Chloro-1-methyl-4-(1-naphthalen-2-ylmethyl-piperidin-4-ylamino)-2-oxo-1,2-dihydro-quinoline-3-carboxylic acid dimethylamide]
CCc1ccc2c(c1)c(NC1CCN(Cc3ccc4occc4c3)CC1)cc(=O)n2C [Compound V-25, 4-(1-Benzofuran-5-ylmethyl-piperidin-4-ylamino)-6-ethyl-1-methyl-1H-quinolin-2-one]
O=c1cc(NC2CCN(Cc3ccc4occc4c3)CC2)c2cc(Cl)ccc2n1Cc1ccccn1 [Compound V-26, 4-(1-Benzofuran-5-ylimethyl-piperidin-4-ylamino)-6-chloro-1-pyridin-2-ylmethyl-1H-quinolin-2-one]
N#Cc1c(NC2CCN(Cc3ccc4c(c3)OCO4)CC2)c2cc(Cl)ccc2[nH]c1=O [Compound V-27, 4-(1-Benzo[1,3]dioxol-5-ylmethyl-piperidin-4-ylamino)-6-chloro-2-oxo-1,2-dihydro-quinoline-3-carbonitrile]
CCc1ccc2c(c1)c(NC1CCN(Cc3ccc4occc4c3)CC1)cc(=O)n2CC [Compound V-28, 4-(1-Benzofuran-5-ylmethyl-piperidin-4-ylamino)-1,6-diethyl-1H-quinolin-2-one]
Cn1c(=O)cc(NC2CCN(C/C=C/c3ccccc3)CC2)c2cc(Cl)ccc21 [Compound V-29, 6-Chloro-1-methyl-4-[1-(3-phenyl-allyl)-piperidin-4-ylamino]-1H-quinolin-2-one]
COC(=O)c1c(NC2CCN(Cc3ccc4ccccc4c3)CC2)c2cc(Cl)ccc2n(C)c1=O [Compound V-30, 6-Chloro-1-methyl-4-(1-naphthalen-2-ylmethyl-piperidin-4-ylamino)-2-oxo-1,2-dihydro-quinoline-3-carboxylic acid methyl ester]
Cn1c(=O)cc(NC2CCN(Cc3ccc4c(c3)OCO4)CC2)c2cc(C(F)(F)F)ccc21 [Compound V-31, 4-(1-Benzo[1,3]dioxol-5-ylmethyl-piperidin-4-ylamino)-1-methyl-6-trifluoromethyl-1H-quinolin-2-one]
COc1ccc(CN2CCC(Nc3c(C#N)c(=O)n(C)c4ccc(Cl)cc34)CC2)cc1F [Compound V-32, 6-Chloro-4-[1-(3-fluoro-4-methoxy-benzyl)-piperidin-4-ylamino]-1-methyl-2-oxo-1,2-dihydro-quinoline-3-carbonitrile]
Cn1c(=O)cc(NC2CCN(Cc3ccc4occc4c3)CC2)c2cc(C(F)(F)F)ccc21 [Compound V-33, 4-(1-Benzofuran-5-ylmethyl-piperidin-4-ylamino)-1-methyl-6-trifluoromethyl-1H-quinolin-2-one]
CC(c1ccc2c(c1)OCO2)N1CCC(Nc2c(C(=O)N(C)C)c(=O)n(C)c3ccc(Cl)cc23)CC1 (stereo not drawn) [Compound V-34, 4-[1-(1-Benzo[1,3]dioxol-5-yl-ethyl)-piperidin-4-ylamino]-6-chloro-1-methyl-2-oxo-1,2-dihydro-quinoline-3-carboxylic acid dimethylamide]
O=c1cc(NC2CCN(Cc3ccncc3)CC2)c2cc(Cl)ccc2n1Cc1ccncc1 [Compound V-35, 6-Chloro-1-pyridin-4-ylmethyl-4-(1-pyridin-4-ylmethyl-piperidin-4-ylamino)-1H-quinolin-2-one]
O=c1cc(NC2CCN(Cc3ccc4c(c3)OCO4)CC2)c2cccc3c2n1CCC3 [Compound V-36, 1-(1-Benzo[1,3]dioxol-5-ylmethyl-piperidin-4-ylamino)-6,7-dihydro-5H-pyrido[3,2,1-ij]quinolin-3-one]
COC(=O)c1c(NC2CCN(Cc3ccc4ccccc4c3)CC2)c2cc(Cl)ccc2[nH]c1=O [Compound V-37, 6-Chloro-4-(1-naphthalen-2-ylmethyl-piperidin-4-ylamino)-2-oxo-1,2-dihydro-quinoline-3-carboxylic acid methyl ester]
Cc1ccc2c(c1)c(NC1CCN(C/C=C/c3ccccc3)CC1)cc(=O)n2C [Compound V-38, 1,6-Dimethyl-4-[1-(3-phenyl-allyl)-piperidin-4-ylamino]-1H-quinolin-2-one]
COC(=O)c1c(NC2CCN(Cc3ccc4c(c3)OCO4)CC2)c2cc(Cl)ccc2n(C)c1=O [Compound V-39, 4-(1-Benzo[1,3]dioxol-5-ylmethyl-piperidin-4-ylamino)-6-chloro-1-methyl-2-oxo-1,2-dihydro-quinoline-3-carboxylic acid methyl ester]
CN(C)C(=O)c1c(NC2CCN(Cc3ccc4occc4c3)CC2)c2cc(Cl)ccc2n(C)c1=O [Compound V-40, 4-(1-Benzofuran-5-ylmethyl-piperidin-4-ylamino)-6-chloro-1-methyl-2-oxo-1,2-dihydro-quinoline-3-carboxylic acid dimethylamide]
CN(C)C(=O)c1c(NC2CCN(Cc3ccc4c(c3)OCO4)CC2)c2cc(Br)ccc2n(C)c1=O [Compound V-42, 4-(1-Benzo[1,3]dioxol-5-ylmethyl-piperidin-4-ylamino)-6-bromo-1-methyl-2-oxo-1,2-dihydro-quinoline-3-carboxylic acid dimethylamide]
CC(C)c1ccc2c(c1)c(NC1CCN(Cc3ccc4c(c3)OCO4)CC1)cc(=O)n2C [Compound V-43, 4-(1-Benzo[1,3]dioxol-5-ylmethyl-piperidin-4-ylamino)-6-isopropyl-1-methyl-1H-quinolin-2-one]
O=c1cc(NC2CCN(C/C=C/c3ccccc3)CC2)c2ccccc2n1Cc1ccccc1 [Compound V-44, 1-Benzyl-4-[1-(3-phenyl-allyl)-piperidin-4-ylamino]-1H-quinolin-2-one]
Cn1c(=O)cc(NC2CCN(Cc3ccc4ccccc4c3)CC2)c2cc(O)ccc21 [Compound V-46, 6-Hydroxy-1-methyl-4-(1-naphthalen-2-ylmethyl-piperidin-4-ylamino)-1H-quinolin-2-one]
Cn1c(=O)cc(NC2CCN(C/C=C/c3ccccc3)CC2)c2ccccc21 [Compound V-47, 1-Methyl-4-[1-(3-phenyl-allyl)-piperidin-4-ylamino]-1H-quinolin-2-one]
Cn1c(=O)c(C2=NC(C)(C)CO2)c(NC2CCN(Cc3ccc4c(c3)OCO4)CC2)c2cc(Cl)ccc21 [Compound V-49, 4-(1-Benzo[1,3]dioxol-5-ylmethyl-piperidin-4-ylamino)-6-chloro-3-(4,4-dimethyl-4,5-dihydro-oxazol-2-yl)-1-methyl-1H-quinolin-2-one]
Cn1c(=O)c(C#N)c(NC2CCN(Cc3ccc4c(c3)OCO4)CC2)c2cc(Cl)ccc21 [Compound V-51, 4-(1-Benzo[1,3]dioxol-5-ylmethyl-piperidin-4-ylamino)-6-chloro-1-methyl-2-oxo-1,2-dihydro-quinoline-3-carbonitrile]
